Where “and” joins values, the source holds several entries; their conditions need not be identical. Identical values can stand only once.
Columns and labels:
human Th9 CAR T cells = assay: CAR lentivirus infection efficiency, GFP (S9C); assay type: cell-based; details: representative flow plot, Figure S9C
Excerpt: Ct EpA Fat Fat Ct EpA Fat Fat
(A) Flow-cytometric analysis of intracellular IL-9 expression in human Th9 cells […]
(B) Flow-cytometric assessment of mitochondrial mass using Mito Tracker in human Th9 cells treated as in (A) (n = 3).
(C) Flow-cytometric analysis of infection efficiency in Th9 cells transduced with a CD19-directed CAR lentivirus. (D and E) Flow-cytometric analysis of IL-9 expression in human Th9 CAR-T cells on days 5 and 6 of in vitro differentiation, showing representative plots (D) and quantification (E) (n = 3). (F) Measurement of intracellular ATP levels normalized to cell number in human Th9 CAR-T c e l l s (n =5).
(G) Flow-cytometric analysis of mitochondrial mass using Mito Tracker in human Th9 CAR-T c e l l s (n = 3). (H and I) Flow-cytometric analysis of granzyme B⁺ CAR-Th9 cells isolated from spleens after adoptive transfer, showing representative plots (H) and quantification (I) (n = 5 mice per group). Statistical analysis was performed using one-way ANOVA with Tukey’s post hoc test (A and B), or two-tailed unpaired Student’s t-test (E–G, and I). Repeated data are presented as mean ± SEM. *p < 0.05, […]

endogenous CD4+ T cells = assay: Cytokines and granzyme B/perforin in endogenous CD4+ T cells (Figure 3I, S4G-I); assay type: in vivo, mouse; set-up: TNF-α expression / IFN-γ expression / Expression of IFN-g of endogenous CD4⁺ T cells in tumor / Expression of TNF-α of endogenous CD4⁺ T cells in tumor: unit not given here; details: for Expression of IFN-g of endogenous CD4⁺ T cells in tumor: Supplemental Figure 4G; for Expression of TNF-α of endogenous CD4⁺ T cells in tumor: Supplemental Figure 4H; for Expression of GzmB+Perforin+ of endogenous CD4⁺ T cells in tumor: Supplemental Figure 4I
Method: (§1) C57BL/6 mice were subcutaneously injected with 5 × 10^5 B16-OVA melanoma cells. Five days after tumor implantation, mice received an intravenous infusion of 2 × 10^6 in vitro–differentiated Th9 cells (cultured for 5 days), which were derived from OT-II CD45.1 donor mice, accompanied by 4 × 10^5 OVA peptide–pulsed DCs via the tail vein. To enhance T cell engraftment and facilitate lymphodepletion, a single intraperitoneal injection of cyclophosphamide (200 mg/kg, Sigma, catalog C0768) was administered 1 day prior to T cell transfer. Mice were euthanized at designated time points for the collection and analysis of spleens, tumor-draining lymph nodes, and tumor tissues.
(§2) Details regarding staining panels (human and mouse), reagents (including clones and catalog numbers), acquisition settings, compensation/controls, and analysis procedures are provided in Supplemental Methods.
(§3) BioLegend, Cat. No. 422301 or Mouse TruStain FcX™, BioLegend, Cat. No. 101319) for 10 minutes at 4°C. For surface marker detection, cells were stained with fluorochrome-conjugated monoclonal antibodies in 96-well V-bottom plates and incubated on ice for 30 minutes. After staining, cells were washed twice and resuspended in FACS buffer for analysis.
(§4) Prior to intracellular cytokine staining, cells were restimulated for 4 hours with PMA (Absin, Cat. No. abs9107), ionomycin (Sigma-Aldrich, Cat. No. I0634), and brefeldin A (MedChemExpress, Cat. No. HY-16592). For intracellular cytokine staining, cells were first surface-stained as described above, then fixed and permeabilized using the BD Cytofix/Cytoperm™ kit (BD Biosciences, Cat. No. 554714) according to the manufacturer ’s protocol. Intracellular proteins were stained with directly conjugated antibodies targeting IL-9, IL-17a, IL-4, IFN-γ, TNF-α, FOXP3, p-ZAP70, Perforin, and […]
(§5) Antibodies used for mouse samples included those against IL-9 (PE, clone RM9A4, Biolegend, Cat. No. 514104), IFN-γ (PE, clone XMG1.2, Biolegend, Cat. No.
(§6) Cat. No. 103138), CD4 (APC/Cy7, clone E-AB-F1353UJ, Elabscience, Cat. No.
(§7) AF18028), CD8α (PerCP/Cy5.5, clone E-AB-F1104UJ, Elabscience, Cat. No. […]
(§8) clone E-AB-F1187UH, Elabscience, Cat. No. AF19854), TNF-α (BV421, clone MP6-XT22, Biolegend, Cat. No. 506328), FOXP3 (PE, clone FJK-16s, eBioscience, Cat. No.
(§9) Perforin (APC, clone S16009A, Biolegend, Cat. No. 154303) and Granzyme B (APC, clone QA16A02, Biolegend, Cat. No. 372203). For human samples, antibodies against CD4 (PerCP/Cy5.5, clone RPA-T4, Biolegend, Cat. No. 300530; APC/Cy7, clone OKT4, Biolegend, Cat. No. 317418), CD19 (APC/Cy7, clone SJ25C1, Biolegend, Cat.
(§10) No. 363009), IFN-γ (PE, clone 4S.B3, Biolegend, Cat. No. 502509), IL-9 (PE, clone

[1] = tested on: transferred CD45.1+ Th9 cells; assay: Cytokines and granzyme B/perforin in transferred CD45.1+ Th9 cells (Figure 3G, S4A-C); assay type: in vivo, mouse; set-up: IFN-γ expression / TNF-α expression / Expression of IFN-γ of transferred CD45.1⁺ OT-II Th9 cells in tumors / Expression of TNF-α of transferred CD45.1⁺ OT-II Th9 cells in tumors: unit not given here; details: for Expression of GzmB+Perforin+ of transferred CD45.1⁺ OT-II Th9 cells in tumor: Supplemental Figure 4C; for Expression of IFN-γ of transferred CD45.1⁺ OT-II Th9 cells in tumors: Supplemental Figure 4A; for Expression of TNF-α of transferred CD45.1⁺ OT-II Th9 cells in tumors: Supplemental Figure 4B
Method: as §1, §2, §3, §4, §5, §6, §7, §8, §9, §10

[2] = endogenous CD4+, spleen, individual mice, n = 4
[3] = transferred CD45.1+ Th9, spleen, individual mice, n = 4
[4] = transferred cells, tumor, result in words

## anteiso-C15 Leu7 surfactin [EpA]
Human Th9 CAR T cells
  GFP gate number (infection efficiency): 47.8
Endogenous CD4+ T cells; CD4+ T cells in tumors, representative flow plot, Figure S4I
  GzmB+ PRF1+ gate number: 5.26
Endogenous CD4+ T cells; [2]
  GzmB and Perforin expression: 8.38 and 8.7 and 5.23 and 4.52
  IFN-γ expression: 10.3 and 15 and 14.6 and 10.5
  TNF-α expression: 13.3 and 10.2 and 13.4 and 20.6
Endogenous CD4+ T cells; spleen, result in words
  TNF-α expression of CD4+ T cells: remained unchanged
  granzyme B+ perforin+ CD4+ T cells: pronounced increase
Endogenous CD4+ T cells; replicate 1
  Expression of IFN-g of endogenous CD4⁺ T cells in tumor: 193
  Expression of TNF-α of endogenous CD4⁺ T cells in tumor: 483
  Expression of GzmB+Perforin+ of endogenous CD4⁺ T cells in tumor: 5.25
Endogenous CD4+ T cells; replicate 2
  Expression of IFN-g of endogenous CD4⁺ T cells in tumor: 141
  Expression of TNF-α of endogenous CD4⁺ T cells in tumor: 294
  Expression of GzmB+Perforin+ of endogenous CD4⁺ T cells in tumor: 5.18
Endogenous CD4+ T cells; replicate 3
  Expression of IFN-g of endogenous CD4⁺ T cells in tumor: 342
  Expression of TNF-α of endogenous CD4⁺ T cells in tumor: 665
  Expression of GzmB+Perforin+ of endogenous CD4⁺ T cells in tumor: 5.26
Endogenous CD4+ T cells; replicate 4
  Expression of IFN-g of endogenous CD4⁺ T cells in tumor: 291
  Expression of TNF-α of endogenous CD4⁺ T cells in tumor: 542
  Expression of GzmB+Perforin+ of endogenous CD4⁺ T cells in tumor: 9.14
Endogenous CD4+ T cells; tumors, result in words
  TNF-α expression of CD4+ T cells: upregulated TNF-α expression
[1]; CD45.1+ T cells in tumors, representative flow plot, Figure S4C
  GzmB+ PRF1+ gate number: 34.1
[1]; [3]
  GzmB and Perforin expression: 68.8 and 68 and 57.8 and 55.7
  IFN-γ expression: 3.05 and 4.37 and 6.82 and 2.23
  TNF-α expression: 23.2 and 21 and 17.5 and 23.6
[1]; transferred cells, spleen, result in words
  IFN-γ, TNF-α, granzyme B and perforin: markedly increased expression
[1]; [4]
  IFN-γ expression: elevated
  TNF-α levels: remained unchanged
  granzyme B+ perforin+ frequency: significantly higher
[1]; tumor, replicate 1
  Expression of GzmB+Perforin+ of transferred CD45.1⁺ OT-II Th9 cells in tumor: 20.5
[1]; tumor, replicate 2
  Expression of GzmB+Perforin+ of transferred CD45.1⁺ OT-II Th9 cells in tumor: 18.9
[1]; tumor, replicate 3
  Expression of GzmB+Perforin+ of transferred CD45.1⁺ OT-II Th9 cells in tumor: 25.9
[1]; tumor, replicate 4
  Expression of GzmB+Perforin+ of transferred CD45.1⁺ OT-II Th9 cells in tumor: 34.1
[1]; replicate 1
  Expression of IFN-γ of transferred CD45.1⁺ OT-II Th9 cells in tumors: 386
  Expression of TNF-α of transferred CD45.1⁺ OT-II Th9 cells in tumors: 916
[1]; replicate 2
  Expression of IFN-γ of transferred CD45.1⁺ OT-II Th9 cells in tumors: 392
  Expression of TNF-α of transferred CD45.1⁺ OT-II Th9 cells in tumors: 557
[1]; replicate 3
  Expression of IFN-γ of transferred CD45.1⁺ OT-II Th9 cells in tumors: 420
  Expression of TNF-α of transferred CD45.1⁺ OT-II Th9 cells in tumors: 913
[1]; replicate 4
  Expression of IFN-γ of transferred CD45.1⁺ OT-II Th9 cells in tumors: 261
  Expression of TNF-α of transferred CD45.1⁺ OT-II Th9 cells in tumors: 544

Reference: PMC12867150, “A fungi-derived cyclic peptide enhances Th9-mediated antitumor immunity by targeting ZAP70 and SREBP1” (The Journal of Clinical Investigation, 2025)
